According to patent publication US10323022B2, “Pyrrolidinyl urea, pyrrolidinyl thiourea and pyrrolidinyl guanidine compounds as TrkA kinase inhibitors” (Array BioPharma Inc., priority 2011, dated 2019):
Structures can show the parent of a compound that is named as a salt.

Target: TrkA (Homo sapiens (Human), UniProt P04629)
Assay: TrkA Omnia Assay
Assay type: biochemical
Details: averaged IC50; 20 nM enzyme, 500 μM ATP, 10 μM peptide substrate
How it was run: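 Recombinant TrkA (20 nM) preincubated 10 min at ambient temperature with compound, then Omnia Tyr Peptide #4 (10 μM) and ATP (500 μM) added in 25 mM MOPS pH 7.5, 5 mM MgCl2, 0.005% Triton X-100. Fluorescence (ex 360/em 485 nm) followed continuously for 70 min; IC50 from initial rates by 4- or 5-parameter logistic fit.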

TrkA, sequence (P04629 33-796): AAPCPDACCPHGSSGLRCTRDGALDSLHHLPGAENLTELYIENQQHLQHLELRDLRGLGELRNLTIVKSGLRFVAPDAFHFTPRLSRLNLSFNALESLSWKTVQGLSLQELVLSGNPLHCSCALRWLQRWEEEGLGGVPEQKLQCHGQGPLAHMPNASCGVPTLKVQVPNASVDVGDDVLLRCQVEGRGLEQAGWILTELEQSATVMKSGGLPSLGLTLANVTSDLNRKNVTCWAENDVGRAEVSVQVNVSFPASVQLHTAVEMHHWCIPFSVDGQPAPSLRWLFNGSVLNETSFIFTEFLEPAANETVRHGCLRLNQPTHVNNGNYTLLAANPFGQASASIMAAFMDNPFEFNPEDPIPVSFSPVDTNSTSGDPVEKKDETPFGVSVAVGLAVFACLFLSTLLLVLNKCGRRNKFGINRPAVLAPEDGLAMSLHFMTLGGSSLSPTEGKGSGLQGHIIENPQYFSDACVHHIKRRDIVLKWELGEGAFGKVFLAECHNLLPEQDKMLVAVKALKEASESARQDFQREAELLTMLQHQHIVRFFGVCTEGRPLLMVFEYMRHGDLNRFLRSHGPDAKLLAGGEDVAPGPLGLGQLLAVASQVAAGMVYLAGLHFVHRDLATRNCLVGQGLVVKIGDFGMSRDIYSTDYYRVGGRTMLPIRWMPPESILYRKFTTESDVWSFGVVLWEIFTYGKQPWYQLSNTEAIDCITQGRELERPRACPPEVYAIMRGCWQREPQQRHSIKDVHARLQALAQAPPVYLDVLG

SMILES | IC50 [nM]
COCCN1C[C@@H](NC(=O)Nc2c3c(nn2-c2ccccc2)CCC3)[C@](O)(c2ccccc2)C1 [Example 180, 1-((3R,4S)-4-hydroxy-1-(2-methoxyethyl)-4-phenylpyrrolidin-3-yl)-3-(2-phenyl-2,4,5,6-tetrahydrocyclopenta[c]pyrazol-3-yl)urea] | 1000 to 10000
CO[C@@H](C)CN1C[C@@H](NC(=O)Nc2c3c(nn2-c2ccccc2)CCC3)[C@H](c2ccccc2)C1 [Example 184, 1-((3S,4R)-1-((S)-2-methoxypropyl)-4-phenylpyrrolidin-3-yl)-3-(2-phenyl-2,4,5,6-tetrahydrocyclopenta[c]pyrazol-3-yl)urea] | 1000 to 10000
COCCOc1nn(-c2ccccc2)c(NC(=O)N[C@@H]2CN(CC#N)C[C@H]2c2ccc(F)c(F)c2)c1C [Example 187, 1-((3S,4R)-1-(cyanomethyl)-4-(3,4-difluorophenyl)pyrrolidin-3-yl)-3-(3-(2-methoxyethoxy)-4-methyl-1-phenyl-1H-pyrazol-5-yl)urea] | 100 to 1000
N#CCN1C[C@@H](NC(=O)Nc2c3c(nn2-c2ccccc2)CCC3)[C@H](c2ccccc2)C1 [Example 188, 1-((3,4-trans)-1-(cyanomethyl)-4-phenylpyrrolidin-3-yl)-3-(2-phenyl-2,4,5,6-tetrahydrocyclopenta[c]pyrazol-3-yl)urea] | 100 to 1000
N#CCN1C[C@@H](NC(=O)Nc2c3c(nn2-c2ccccc2)CCC3)[C@H](c2ccccc2)C1 [Example 189, 1-((3S,4R)-1-(cyanomethyl)-4-phenylpyrrolidin-3-yl)-3-(2-phenyl-2,4,5,6-tetrahydrocyclopenta[c]pyrazol-3-yl)urea] | 100 to 1000
NC(=O)CN1C[C@@H](NC(=O)Nc2c3c(nn2-c2ccccc2)CCC3)[C@H](c2ccccc2)C1 [Example 190, 2-((3R,4S)-3-phenyl-4-(3-(2-phenyl-2,4,5,6-tetrahydrocyclopenta[c]pyrazol-3-yl)ureido)pyrrolidin-1-yl)acetamide] | 1000 to 10000
Cc1nn(-c2ccccc2)c(NC(=O)N[C@@H]2CN(CCO)C[C@H]2c2ccc(F)c(F)c2)c1C [Example 191, 1-((3S,4R)-4-(3,4-difluorophenyvl)-1-(2-hydroxyethyl)pyrrolidin-3-yl)-3-(3,4-dimethyl-1-phenyl-1H-pyrazol-5-yl)urea] | 100 to 1000
O=C(Nc1c2c(nn1-c1ccccc1)CCC2)N[C@@H]1CN(CCC(F)(F)C(F)(F)F)C[C@H]1c1ccccc1 [Example 192, 1-((trans)-1-(3,3,4,4,4-pentafluorobutyl)-4-phenlpyrrrolidin-3-yl)-3-(2-phenyl-2,4,5,6-tetrahydrocyclopenta[c]pyrazol-3-yl)urea] | 100 to 1000
O=C(Nc1c2c(nn1-c1ccccc1)CCC2)N[C@@H]1CN(CC(F)(F)F)C[C@H]1c1cccc(F)c1 [Example 200, 1-((3S,4R)-4-(3-fluorophenyl)-1-(2,2,2-trifluoroethyl)pyrrolidin-3-yl)-3-(2-phenyl-2,4,5,6-tetrahydrocyclopenta[c]pyrazol-3-yl)urea] | 100 to 1000
Cc1nn(-c2ccccc2)c(NC(=O)N[C@@H]2CN(CC(F)(F)F)C[C@H]2c2cccc(F)c2)c1C [Example 201, 1-(3,4-dimethyl-1-phenyl-1H-pyrazol-5-yl)-3-((3S,4R)-4-(3-fluorophenyl)-1-(2,2,2-trifluoroethyl)pyrrolidin-3-yl)urea] | 100 to 1000
Cn1nc(-c2ccccc2)cc1NC(=O)N[C@@H]1CN(CC(F)(F)F)C[C@H]1c1cccc(F)c1 [Example 203, 1-((3S,4R)-4-(3-fluorophenyl)-1-(2,2,2-trifluoroethyl)pyrrolidin-3-yl)-3-(1-methyl-3-phenyl-H-pyrazol-5-yl)urea] | 100 to 1000
O=C(Nc1c2c(nn1-c1ccccc1)CCC2)N[C@@H]1CN(CC(F)(F)F)CC1c1cccnc1 (stereo partly drawn) [Example 213, 1-(2-phenyl-2,4,56-tetrahydrocyclopenta[c]pyrazol-3-yl)-3-((trans)-4-(pyridin-3-v)-1-(2,2,2-trifluoroethyl)pyrrolidin-3-yl)urea] | 100 to 1000

Now from value to compound:

IC50 [nM] | SMILES
< 100 | COCCN1C[C@@H](NC(=O)Nc2c(F)c(-c3ccccc3)nn2-c2ccccc2)[C@H](c2ccc(F)c(F)c2)C1 [Example 169, 1-((3S,4R)-4-(3,4-difluorophenyl)-1-(2-methoxyethyl)pyrrolidin-3-yl)-3-(4-fluoro-1,3-diphenyl-1H-pyrazol-5-yl)urea]
< 100 | COCCOC(=O)c1ccc(-c2cc(NC(=O)N[C@@H]3CN(CCOC)C[C@H]3c3ccc(F)c(F)c3)n(C)n2)cc1 [Example 170, 2-methoxyethyl 4-(5-(3-((3S,4R)-4-(3,4-difluorophenyl)-1-(2-methoxyethyl)pyrrolidin-3-yl)ureido)-1-methyl-1H-pyrazol-3-yl)benzoate]
< 100 | COCCN1C[C@@H](NC(=O)Nc2c3c(nn2-c2ccccc2)CS(=O)(=O)C3)[C@H](c2ccc(F)c(F)c2)C1 [Example 171, 1-((3S,4R)-4-(3,4-difluorophenyl)-1-(2-methoxyethyl)pyrrolidin-3-yl)-3-(5,5-dioxido-2-phenyl-4,6-dihydro-2H-thieno[3,4-c]pyrazol-3-yl)urea]
< 100 | COCCN1C[C@@H](NC(=O)Nc2c3c(nn2-c2ccccc2)CS(=O)(=O)C3)[C@H](c2ccccc2)C1 [Example 172, 1-(5,5-dioxido-2-phenyl-4,6-dihydro-2H-thieno[3,4-c]pyrazol-3-yl)-3-((3S,4R)-1-(2-methoxyethyl)-4-phenylpyrrolidin-3-yl)urea]
< 100 | COCCN1C[C@@H](NC(=O)Nc2c3c(nn2-c2ccccc2)CS(=O)(=O)C3)[C@H](c2cc(F)cc(F)c2)C1 [Example 173, 1-((3S,4R)-4-(3,5-difluorophenyl)-1-(2-methoxyethyl)pyrrolidin-3-yl)-3-(5,5-dioxido-2-phenyl-4,6-dihydro-2H-thieno[3,4-c]pyrazol-3-yl)urea]
< 100 | COCCN1C[C@@H](NC(=O)Nc2c(C)c(OCCS(C)(=O)=O)nn2-c2ccccc2)[C@H](c2ccc(F)c(F)c2)C1 [Example 174, 1-((3S,4R)-4-(3,4-difluorophenyl)-1-(2-methoxyethyl)pyrrolidin-3-yl)-3-(4-methyl-3-(2-(methylsulfonyl)ethoxy)-1-phenyl-1H-pyrazol-5-yl)urea]
< 100 | COCCN1C[C@@H](NC(=O)Nc2c(CO)cnn2-c2ccccc2)[C@H](c2ccc(F)c(F)c2)C1 [Example 175, 1-((3S,4R)-4-(3,4-difluorophenyl)-1-(2-methoxyethyl)pyrrolidin-3-yl)-3-(4-(hydroxymethyl)-1-phenyl-1H-pyrazol-5-yl)urea]
< 100 | COCCN1C[C@@H](NC(=O)Nc2c(C)c(OC[C@H](O)CO)nn2-c2ccccc2)[C@H](c2ccc(F)c(F)c2)C1 [Example 176, 1-((3S,4R)-4-(3,4-difluorophenyl)-1-(2-methoxyethyl)pyrrolidin-3-yl)-3-(3-((R)-2,3-dihydroxypropoxy)-4-methyl-1-phenyl-1H-pyrazol-5-yl)urea]
< 100 | COCCN1C[C@@H](NC(=O)Nc2c(C)c(OC[C@@H](O)CO)nn2-c2ccccc2)[C@H](c2ccc(F)c(F)c2)C1 [Example 177, 1-((3S,4R)-4-(3,4-difluorophenyl)-1-(2-methoxyethyl)pyrrolidin-3-yl)-3-(3-((S)-2,3-dihydroxypropoxy)-4-methyl-1-phenyl-1H-pyrazol-5-yl)urea]
< 100 | COCCN1C[C@@H](NC(=O)Nc2c(C)c(OCCO)nn2-c2ccccc2)[C@H](c2ccc(F)c(F)c2)C1 [Example 178, 1-((3S,4R)-4-(3,4-difluorophenyl)-1-(2-methoxyethyl)pyrrolidin-3-yl)-3-(3-(2-hydroxyethoxy)-4-methyl-1-phenyl-1H-pyrazol-5-yl)urea hydrochloride]
< 100 | COCCN1C[C@@H](NC(=O)Nc2c(C)c(OC[C@H](C)O)nn2-c2ccccc2)[C@H](c2ccc(F)c(F)c2)C1 [Example 179, 1-((3S,4R)-4-(3,4-difluorophenyl)-1-(2-methoxyethyl)pyrrolidin-3-yl)-3-(3-((S)-2-hydroxypropoxy)-4-methyl-1-phenyl-1H-pyrazol-5-yl)urea hydrochloride]
100 to 1000 | COCCN1C[C@@H](NC(=O)Nc2c3c(nn2-c2ccccc2)CCC3)[C@](F)(c2ccccc2)C1 [Example 181, 1-((3R,4S)-4-fluoro-1-(2-methoxyethyl)-4-phenylpyrrolidin-3-yl)-3-(2-phenyl-2,4,5,6-tetrahydrocyclopenta[c]pyrazol-3-yl)urea]
100 to 1000 | O=C(Nc1c2c(nn1-c1ccccc1)CCC2)NC1CN(CCCC(F)(F)F)C[C@H]1c1ccccc1 (stereo partly drawn) [Example 185, 1-((3,4-trans)-4-phenyl-1-(4,4,4-trifluorobutyl)pyrrolidin-3-yl)-3-(2-phenyl-2,4,5,6-tetrahydrocyclopenta[c]pyrazol-3-yl)urea]
< 100 | N#CCN1C[C@@H](NC(=O)Nc2c3c(nn2-c2ccccc2)CCC3)[C@H](c2ccc(F)c(F)c2)C1 [Example 186, 1-((3S,4R)-1-(cyanomethyl)-4-(3,4-difluorophenyl)pyrrolidin-3-yl)-3-(2-phenyl-2,4,5,6-tetrahydrocyclopenta[c]pyrazol-3-yl)urea]
< 100 | COCCOc1nn(-c2ccccc2)c(NC(=O)N[C@@H]2CN(CC(F)(F)F)C[C@H]2c2cccc(F)c2)c1C [Example 202, 1-((3S,4R)-4-(3-fluorophenyl)-1-(2,2,2-trifluoroethyl)pyrrolidin-3-yl)-3-(3-(2-methoxyethoxy)-4-methyl-1-phenyl-1H-pyrazol-5-yl)urea]
< 100 | O=C(Nc1c2c(nn1-c1ccccc1)CCC2)N[C@H]1CN(CC(F)(F)F)C[C@@H]1c1cccc(F)c1 [Example 204, 1-((3R,4S)-4-(3-fluorophenyl)-1-(2,2,2-trifluoroethyl)pyrrolidin-3-yl)-3-(2-phenyl-2,4,5,6-tetrahydrocyclopenta[c]pyrazol-3-yl)urea]
< 100 | CCOc1nn(-c2ccccc2)c(NC(=O)N[C@@H]2CN(c3cn[nH]c3)C[C@H]2c2ccc(F)c(F)c2)c1C [Example 216, 1-((3S,4R)-4-(3,4-difluorophenyl)-1-(1H-pyrazol-4-yl)pyrrolidin-3-yl)-3-(3-ethoxy-4-methyl-1-phenyl-1H-pyrazol-5-yl)urea]
